Reference: publication PMC5444710, “Enhancement of radiosensitivity by the novel anticancer quinolone derivative vosaroxin in preclinical glioblastoma models” (Oncotarget, 2017)

Columns and labels:
[1] = system: 13 human glioma cell lines and three patient-derived glioblastoma stem cell lines; test: Cell viability / growth inhibition, whole panel; assay type: cell-based
Procedure: (§1) Cells were seeded at a density of 2 × 10^4 cells/mL in 24-well plates. Cells were […] to attach and grow in 5% fetal bovine serum in DMEM for 24 hours. Cells were treated with different doses of radiation or temozolomide and then maintained in the appropriate culture conditions. At the conclusion of the treatment period, cells were trypsinized and resuspended in 1.0 mL of saline; viable cells were counted using the NucleoCounter^TM NC-100 (Chemotec, […], Denmark). All experiments were conducted in triplicate. IC50 values were calculated using GraFit (Erithacus Software Limited, Staines, UK).

caspase-3 = test: Caspase-3 activity (ELISA); assay type: cell-based, human; details: addition of vosaroxin (IC20) to RT
Procedure: After appropriate treatments, tumor cell cultures and tissues were harvested for analysis of cytokine expression. Cell pellets were washed with PBS and lysed with RIPA buffer. Cell lysates and conditioned media were assayed by ELISA to measure (i) active human caspase-3 (CBA045, Merck Chemicals Ltd., Nottingham, UK), (ii) beclin-1 (E98557Hu, USCN Life Sciences, Houston, TX, USA), and (iii) DNA damage (EpiQuik in situ DNA Damage Assay Kit, Epigentek, Farmingdale, NY, USA).

[2] = system: U87MG, U251, and T98G cells; test: Autophagy: acidic vesicular organelle (AVO) staining; assay type: cell-based, human; details: vosaroxin at IC20 for each cell line added to RT 4 Gy; 24 hours
Text: As a marker of autophagy we evaluated the presence of AVOs after staining of cell cultures with LysoTracker® Red DND-99 kit (Life Technologies Italia, Monza, Italy) according to the manufacturer’s instructions. The intensity of the red fluorescence is proportional to the degree of acidity. The percentage of autophagic cells was quantified with the Tali® Image-Based Cytometer (Life Technologies) measuring fluorescence emission at 590 nm with fluorescence excitation at 577 nm. The results were expressed as the percentage of cell AVOs stained in controls and in treated cultures.

SNB19 glioma cell line = test: Inhibition of proliferation (cell viability); assay type: cell-based; details: Homo sapiens, SNB-19
Procedure: as §1

T98G glioma cell line = test: Inhibition of proliferation (cell viability); assay type: cell-based; details: Homo sapiens
Procedure: as §1

U251 glioma cell line = test: Inhibition of proliferation (cell viability); assay type: cell-based; details: Homo sapiens, U-251
Procedure: as §1

U373 glioma cell line = test: Inhibition of proliferation (cell viability); assay type: cell-based; details: Homo sapiens, U373 MG
Procedure: as §1

U118 glioma cell line = test: Inhibition of proliferation (cell viability); assay type: cell-based; details: Homo sapiens
Procedure: as §1

D54 glioma cell line = test: Inhibition of proliferation (cell viability); assay type: cell-based; details: Homo sapiens
Procedure: as §1

U87MG glioma cell line = test: Inhibition of proliferation (cell viability); assay type: cell-based; details: Homo sapiens, U-87 MG
Procedure: as §1

U138 glioma cell line = test: Inhibition of proliferation (cell viability); assay type: cell-based; details: Homo sapiens
Procedure: as §1

LN18 glioma cell line = test: Inhibition of proliferation (cell viability); assay type: cell-based; details: Homo sapiens, LN-18
Procedure: as §1

A172 glioma cell line = test: Inhibition of proliferation (cell viability); assay type: cell-based; details: Homo sapiens, A 172
Procedure: as §1

LN229 glioma cell line = test: Inhibition of proliferation (cell viability); assay type: cell-based; details: Homo sapiens, LN-229
Procedure: as §1

SW1783 glioma cell line = test: Inhibition of proliferation (cell viability); assay type: cell-based; details: Homo sapiens
Procedure: as §1

SF268 glioma cell line = test: Inhibition of proliferation (cell viability); assay type: cell-based; details: Homo sapiens, SF-268
Procedure: as §1

[3] = system: CSCs-5 patient-derived glioblastoma stem cell line; test: Inhibition of proliferation (cell viability); assay type: cell-based; details: Homo sapiens
Procedure: (§2) Thirteen human glioma cell lines (U251, U373, SNB19, U118, U138, U87MG, A172, LN229, LN19, SW1783, T98G, SF-268, and D54) were cultured at 37°C in 5% CO2 and were maintained in Dulbecco’s modified Eagle medium (DMEM) containing 10% (v/v) fetal bovine serum, 4 mM glutamine, 100 IU/mL penicillin, 100 μg/mL streptomycin, and 1% nonessential amino acid (Invitrogen Life Technologies, Inc., Rockville, MD, USA). To minimize the risk of working with misidentified and/or contaminated cell lines, the cells used in studies reported here were stocked at very low passages after initial receipt from the vendor to reduce the possibility of contaminated cell line stocks and used at < 20 subcultures. Periodically, DNA profiling by GenePrint® 10 System (Promega Corporation, Madison, WI, USA) was carried out to authenticate cell cultures. Luciferase-transfected U251 cells were kindly provided by Jari E. Heikkila, department of Biochemistry and Pharmacy, Abo Akademi University, Turku, Finland. […] These non-commercially available, patient-derived cells were analyzed using short tandem repeat profiles. The expression of MGMT, p53, and PTEN was detected in western blots with antibodies from Santa Cruz against MGMT (sc166528), wt p53 (sc-100), total p53 (sc-126), and PTEN (sc-7974).
(§3) Cells were seeded at a density of 2 × 10^4 cells/mL in 24-well plates. […] At the conclusion of the treatment period, cells were trypsinized and resuspended in 1.0 mL of saline; viable cells were counted using the NucleoCounter™ NC-100 (Chemotec, Cydevang, Denmark). […] IC50 values were calculated using GraFit (Erithacus Software Limited, Staines, UK).

[4] = system: CSCs-7 patient-derived glioblastoma stem cell line; test: Inhibition of proliferation (cell viability); assay type: cell-based; details: Homo sapiens
Procedure: as §2, §3

[5] = system: BT12M patient-derived glioblastoma stem cell line; test: Inhibition of proliferation (cell viability); assay type: cell-based; details: Homo sapiens
Procedure: as §2, §3

## CN[C@H]1CN(c2ccc3c(=O)c(C(=O)O)cn(-c4nccs4)c3n2)C[C@@H]1OC [vosaroxin]
[1]; Glioma cell, glioma cells used in clonogenic studies, read-out: IC20 values in growth inhibition assays, range
  IC20: 0.01 to 0.1 µM
[1]; read-out: IC50 values, range over all cell lines tested
  IC50: 0.0128 to 0.261 µM
caspase-3
  caspase-3 activity: increased
[2]
  RT-induced AVO staining: reduced
SNB19 glioma cell line
  IC50: 0.0355 ± 0.007 µM
T98G glioma cell line
  IC20: 0.045 µM
  IC50: 0.0645 ± 0.011 µM
U251 glioma cell line
  IC20: 0.015 µM
  IC50: 0.0186 ± 0.0024 µM
U373 glioma cell line
  IC50: 0.0784 ± 0.0097 µM
U118 glioma cell line
  IC50: 0.0885 ± 0.0167 µM
D54 glioma cell line
  IC50: 0.19 ± 0.0254 µM
U87MG glioma cell line
  IC20: 0.065 µM
  IC50: 0.141 ± 0.0847 µM
U138 glioma cell line
  IC50: 0.0658 ± 0.0146 µM
LN18 glioma cell line
  IC50: 0.09 ± 0.0125 µM
A172 glioma cell line
  IC50: 0.125 ± 0.0894 µM
LN229 glioma cell line
  IC50: 0.0128 ± 0.0023 µM
SW1783 glioma cell line
  IC50: 0.261 ± 0.0098 µM
SF268 glioma cell line
  IC50: 0.0503 ± 0.012 µM
[3]
  IC50: 0.0854 ± 0.0078 µM
[4]
  IC50: 0.125 ± 0.0154 µM
[5]
  IC50: 0.0443 ± 0.0055 µM
